The text below walks through data of US12016881B2, “Methods and reagents for modulating macrophage phenotype” (NEW YORK UNIVERSITY, priority 2016, dated 2024).

Common to all, as to assay type: cell-based, mouse
Experiment [1] has as its system RAW 264.7 cells. Briefly: Western blot analysis of M1 cytokine and iNOS protein expression. As to the method:
(§1) Cell lines and cell culture treatments. All cells were maintained under 5% CO2 at 37° C. and cultured in DMEM (Gibco) supplemented with 10% FBS (Gibco), penicillin and streptomycin (Gibco), and 25 mmol/L HEPES (Gibco). Mouse RAW 264.7 cells were obtained from the American Type Culture Collection (2014, ATCC TIB-71). Mouse KPC cells were a kind gift from Dr. R. H. Vonderheide (2013) and generated as previously described (Lo et al., “Tumor-Promoting Desmoplasia Is Disrupted by Depleting FAP-Expressing Stromal Cells,” Cancer Res. 75:2800-10 (2015), which is hereby incorporated by reference in its entirety). Cell lines were not authenticated and were tested for mycoplasma contamination every 3 months by DAPI stain of cells grown for 1 week in the absence of antibiotics. KPC and RAW 264.7 were propagated for 2 to 3 passages (approximately 1 week) prior to use in all experiments and were kept in culture for no longer than 1 month. Recombinant mouse interferon gamma IFNγ was purchased from R&D Systems (CN 485 MI/CF), LPS (L2630), and paclitaxel (T7402) were purchased from Sigma-Aldrich, CLI-095 was purchased from Invivogen (TLRL-CLI95), BAPTA-AM was purchased from Life Technologies (B6769), and 5-(N-ethyl-N-isopropyl) amiloride (EIPA) was purchased from Invitrogen Molecular Probes (e-3111). […]
(In general: In western blotting, separated proteins are transferred to a membrane and probed.)

Experiment [2] relates to RAW 264.7 cells. Briefly: Macropinocytosis assay: OG-nab-paclitaxel internalization by macrophages. The conditions noted are these: 30 minute pretreatment with inhibitor or blocking antibody. As to the method: as §1
For experiment [3], the system named is RAW 264.7 cells. Briefly: Gene expression analysis (qPCR) of M1 cytokines and Inos. The conditions noted are these: for effect on nab-paclitaxel-dependent M1 cytokine expression: co-treatment with nab-paclitaxel. As to the method: Cell lines and cell culture treatments. All cells were maintained under 5% CO2 at 37° C. and cultured in DMEM (Gibco) supplemented with 10% FBS (Gibco), penicillin and streptomycin (Gibco), and 25 mmol/L HEPES (Gibco). Mouse RAW 264.7 cells were obtained from the American Type Culture Collection (2014, ATCC TIB-71). Mouse KPC cells were a kind gift from Dr. R. H. Vonderheide (2013) and generated as previously described (Lo et al., “Tumor-Promoting Desmoplasia Is Disrupted by Depleting FAP-Expressing Stromal Cells,” Cancer Res. 75:2800-10 (2015), which is hereby incorporated by reference in its entirety). Cell lines were not authenticated and were tested for mycoplasma contamination every 3 months by DAPI stain of cells grown for 1 week in the absence of antibiotics. KPC and RAW 264.7 were propagated for 2 to 3 passages (approximately 1 week) prior to use in all experiments and were kept in culture for no longer than 1 month. Recombinant mouse interferon gamma IFNγ was purchased from R&D Systems (CN 485 MI/CF), LPS (L2630), and paclitaxel (T7402) were purchased from Sigma-Aldrich, CLI-095 was purchased from Invivogen (TLRL-CLI95), BAPTA-AM was purchased from Life Technologies (B6769), and 5-(N-ethyl-N-isopropyl) amiloride (EIPA) was purchased from Invitrogen Molecular Probes (e-3111). Reagents were used at concentrations of 5 ng/mL (IFNγ), 20 ng/mL (LPS), […] (paclitaxel), 500 nmol/L (CLI-095), […] (BAPTA-AM), and […] (EIPA) unless indicated otherwise. Tetramethylrhodamine (TMR)-labeled dextran was purchased from Invitrogen (D1822). Nab-paclitaxel (Abraxane; Abraxis BioScience) pharmaceutical grade powder was purchased through the NYU Langone Medical Center pharmacy and used at a concentration of […] for in vitro experiments.
Gene expression analysis. For in vitro qPCR analysis, total RNAwas harvested 2 hours (IL1α, IL1β, IL6, TNFα, and iNOS) or 8 hours (IL12β) after cell culture treatments, using the QIAGEN RNA extraction Kit (QIAGEN). For in vivo gene expression analysis, the CD45 F4/80 double-positive population was sorted directly into TRIzol LS Reagent (Thermo-FisherScientific; CN 10296) from dissociated orthotopic tumors 48 hours after treatment, and total RNA was purified according to the manufacturer's protocol. Purified RNA ([…]) was reverse-transcribed using the QuantiTect Reverse Transcription Kit (QIAGEN), and 1 of 10 of cDNA mixture (in vitro experiments) or 1 of 3 of cDNA mixture (in vivo experiments) was used for qPCR reaction. Primers were obtained from Integrated DNA Technologies (IDT) with the following sequences (5′-3′): Il1α (Forward) […] (SEQ ID NO: 2), (Reverse) […] (SEQ ID NO: 3); Il1β (Forward) […] (SEQ ID NO: 4), (Reverse) […] (SEQ ID NO: 5); Il6 (Forward) […]-[…] (SEQ ID NO: 6), (Reverse) […] (SEQ ID NO: 7); Inos (Forward) […] (SEQ ID NO: 8), (Reverse) […] (SEQ ID NO: 9); Tnfα (Forward) […] (SEQ ID NO: 10), (Reverse) […] (SEQ ID NO: 11); Il12b (IIl12 p40) (Forward) […] (SEQ ID NO: 12), (Reverse) […]-[…] (SEQ ID NO: 13); Gapdh (Forward) […] (SEQ ID NO: 14), (Reverse) […] (SEQ ID NO: 15); Rps29 […] (SEQ ID NO: 16) (Forward), […]-GCGTACT (SEQ ID NO: 17) (Reverse).
In general terms: Quantitative PCR measures a nucleic acid by following its amplification.

Setting [4] is: nab-ptx in combination with IFNγ.

For the compound `CCN(c1nc(N)c(C(=O)N=C(N)N)nc1Cl)C(C)C` [EIPA, 5-(N-ethyl-N-isopropyl) amiloride], in experiment [1] (setting [4]), the “effect on nab-paclitaxel-driven iNOS protein expression” value is on record as “partially inhibited”. Also, the “effect on OG-nab-paclitaxel internalization” value in experiment [2] was “reduced”. Further, the “effect on nab-paclitaxel-dependent M1 cytokine expression” value in experiment [3] is listed as “inhibited”. Further, in experiment [3] (setting [4]), the “effect on nab-paclitaxel-driven iNOS gene expression” value was “partially inhibited”.

In the case of `CC(=O)OCOC(=O)CN(CC(=O)OCOC(C)=O)c1ccccc1OCCOc1ccccc1N(CC(=O)OCOC(C)=O)CC(=O)OCOC(C)=O` [BAPTA-AM], the “effect on nab-paclitaxel-dependent M1 cytokine expression” value in experiment [3] was “inhibited”.

For the compound `CCOC(=O)C1=CCCC[C@H]1S(=O)(=O)Nc1ccc(F)cc1Cl` [CLI-095], in experiment [1] (with IFNγ), the “effect on nab-paclitaxel and LPS-dependent iNOS protein expression” value is reported as “abrogated”. The “effect on LPS-dependent Il1α, Il1β, Il6, Il12b, and Tnfα gene expression” value in experiment [3] (TLR4 inhibitor with LPS) is “abrogated”. Further, in experiment [3] (TLR4 inhibitor with nab-ptx), the “effect on nab-paclitaxel-dependent Il1α, Il1β, Il6, Il12b, and Tnfα gene expression” value is “abrogated”.
